PubChem BioAssay AID1626 (SRMLSC, 2009)

System: M. tuberculosis H37Rv growth inhibition
Experiment: M. tuberculosis H37Rv growth inhibitors, H37Rv strain (AID 1626)
Conditions: for IC90: measured here: IC90 against H37Rv; for CC50: measured here: Vero cell cytotoxicity

| Compound | IC50 [µM] | IC90 [µM] | CC50 [µM] |
| --- | --- | --- | --- |
| CCc1nnc(NC(=O)c2ccc3ccccc3n2)s1 | 12.1 | > 100 | > 40 |
| COc1ccc(C(CCN2CCCCC2)c2c(OC)cc(OC)c3c(-c4ccccc4)cc(=O)oc23)cc1 (stereo unspecified) | 7.16 | 10.9 | 16 |
| Cn1cc(CN2CCN(c3ccc(Cl)cn3)CC2)c(-c2ccccc2F)n1 |  | > 100 |  |
| COC(=O)CN1C(c2ccc(OC)cc2)=Nc2ccc(Cl)cc2C1c1ccccc1 (stereo unspecified) | 3.18 | 6.98 |  |
| CCOc1ccc(-c2cc(CCCC(=O)Nc3cccc(OC)c3)no2)cc1 | 10.7 | > 100 | > 40 |
| CN(C)c1ccc(N=Nc2ccccc2C(=O)OCC(=O)NCC2CCCCC2)cc1 | 7.74 | 17.2 |  |
| COc1ccc(SN=C2C(C)=CC(=O)C=C2C)cc1 | 11 | 12.3 |  |
| OCCN1CCN(c2nc(-c3ccccc3)nc3c2oc2ccccc23)CC1 | 4.89 | 8.31 | 13.6 |
| O=C(CCl)NC1CCCc2ccccc21 (stereo unspecified) | 20.6 | > 100 | 32.5 |
| CCCC(=O)OCCNc1cc(SCc2ccco2)c2nonc2c1[N+](=O)[O-] | 4.2 | 9.07 |  |
| CCOC(=O)COc1ccc(S(=O)(=O)NCCC2=CCCCC2)cc1 | 12.1 | 20.8 |  |
| Cc1cccc(OCCCCCn2ccnc2)c1C | 10.6 | 11.6 | > 40 |
| CCOC(=O)c1sc(NC(=O)CNCc2ccccn2)c(C(=O)OCC)c1C | 2.77 | 4.22 | > 40 |
| CCOc1ccc2nc(/N=C/c3c(C)[nH]n(-c4ccc(C)cc4)c3=O)sc2c1 | 9.04 | > 100 | > 40 |
| COc1ccc(-c2cc3nc(C)c(CCC(=O)NCc4ccc(F)cc4)c(C)n3n2)c(OC)c1 |  |  | > 40 |
| Cc1ccc(Oc2cc(NC(=O)CCCn3nc(C)c([N+](=O)[O-])c3C)cc([N+](=O)[O-])c2)cc1 | 2.33 | 3.34 | > 40 |
| O=C(O)C1CCCCC1C(=O)Nc1ccccc1Nc1ccccc1 (stereo unspecified) |  | > 100 |  |
| O=c1oc2ccccc2nc1/C=C(O)/C=C\c1ccccc1 | 4.33 | 13.1 |  |
| O=C1c2cccc3c([N+](=O)[O-])ccc(c23)C(=O)N1c1ccccn1 | 7.34 | 10.5 | 12.2 |
| O=Cc1ccc2noc(-c3ccc(F)cc3)c2c1 |  | > 100 |  |
| c1ccc(-c2nc(N3CCCCCC3)c3ccccc3n2)nc1 | 0.304 | 0.318 | 4.21 |
| COc1ccc(-c2csc(NC(C)c3nc4cc(Cl)c(N5CCCCC5)cc4n3CCOCCO)n2)cc1 (stereo unspecified) | 7.74 | > 100 | > 40 |
| CC(C)[C@H](NC(=O)c1ccccc1Cl)C(=O)Nc1nc(-c2ccccn2)cs1 | 7.72 | > 100 | 9.39 |
| O=[N+]([O-])c1cc(C=Nc2ccc3ccccc3c2)ccc1Br | 5.95 | > 100 |  |
| O=C(c1ccc(F)cc1)C(CN1CCOCC1)c1ccccc1 (stereo unspecified) | 6.14 | 7.01 | 20.7 |
| CCOC(=O)c1sc2nc(C)[nH]c(=S)c2c1C | 39.1 | > 100 |  |
| O=C(CSc1ccc(-c2ccccn2)nn1)c1ccc(F)cc1 | 22.2 | 36 |  |

| Compound | IC50 [µM] | IC90 [µM] | CC50 [µM] |
| --- | --- | --- | --- |
| CCCCCCn1c(=O)c(C(=O)Nc2nnc(C)s2)c(O)c2ccccc21 | 4.65 | 6 | > 40 |
| COc1ccc(C(CCNCc2ccc(F)cc2)c2ccc(F)cc2)cc1 (stereo unspecified) | 5.7 | 6.62 | 23.2 |
| O=C(Nc1ccn(Cc2ccccc2F)n1)c1ccc(COc2ccc(Cl)cc2Cl)o1 | 33.9 | > 100 | > 40 |
| CCOC(=O)Cn1c2c(c(-c3ccccc3OC)cc1=O)CCCC2 | 21.1 | > 100 |  |
| Fc1cccc2sc(Nc3nnc(-c4ccco4)o3)nc12 | < 0.195 | 3.19 | 36.4 |
| O/N=C/c1ccc2ccccc2c1 |  | > 100 |  |
| Cc1cc(NC(=O)c2ccc(C)s2)n(-c2nc3ccccc3[nH]2)n1 |  |  | > 40 |
| CN(C)c1ccc(O)c2c1CC1CC3C(N(C)C)C(=O)C(C(N)=O)=C(O)[C@@]3(O)C(=O)C1=C2O (stereo partly specified) | 3.33 | 7.59 | > 40 |
| CCn1cc(C(=O)O)c(=O)c2cc(F)c(N3CCNCC3)cc21 | 2.85 | 3.11 |  |
| COc1cc2c(cc1NCc1ccc3c(c1)OCO3)oc1ccccc12 | 89.1 | > 100 |  |
| O=c1[nH]c(CN2CCCCC2)nc2c1C1(CCCCC1)Cc1ccccc1-2 | 4.01 | > 100 |  |
| CCCCCCCCCCn1c2c(c(=N)c3c1CCC3)CCC2 | 2.42 | 3.59 | 6.09 |
| CCc1ccc2c(c1)C1(C(=O)N2)N2CCCC2C(C(=O)c2ccc3ccccc3c2)C12C(=O)Nc1ccccc12 (stereo unspecified) | 2.97 | > 100 | 17.8 |
| CN(CCCC[C@H](CNCc1ccc(-c2ccccc2)cc1)N1C[C@H](c2ccccc2)N(CCc2ccc(Cl)c(Cl)c2)C(=O)C1=O)Cc1ccc(-c2ccccc2)cc1 | 5.07 | 5.61 | 6.12 |
| Cn1c(N=Nc2ccccc2)nc2ccccc21 | 1.04 | 1.89 | 16.1 |
| COc1ccc(N)cc1-n1cnnn1 |  | > 100 |  |
| CC(C)c1nnc(NC(=O)c2c(O)c3cccc4c3n(c2=O)CCC4)s1 | 0.604 | 0.731 | 6.5 |
| C=C1C(=O)O[C@@H]2C[C@@H](C)[C@@H]3C=CC(=O)[C@@]3(C)[C@@H](OC(C)=O)[C@H]12 | 2.07 | 3.51 | 2.02 |
| CCOc1ccc(NC(=O)N(C2CCCCCC2)C2CCN(C(C)=O)CC2)cc1 |  | > 100 |  |
| c1ccc(Oc2nc(-c3ccccn3)nc3ccccc23)cc1 | 2.71 | 13.8 | > 40 |
| COc1cc(/C=C/C(=O)c2cccc([N+](=O)[O-])c2)cc(OC)c1OC | 3.77 | 11.2 | 18.5 |
| O=C(Nc1cccc(NC(=O)c2cccs2)c1)c1ccc([N+](=O)[O-])o1 | 7.97 | 14.3 | 13.8 |
| COc1ccc(NC(=O)NC(C)C2CC3CCC2C3)cc1 (stereo unspecified) | 7.4 | > 100 | > 40 |
| O=C(Oc1cccc(-c2cnc3ccccc3n2)c1)c1ccco1 | 1.39 | > 100 |  |
| Cc1nc(NC(=O)CSc2nnc(-c3ccc4c(c3)OCO4)o2)c(Cl)cc1Cl |  | > 100 |  |
| CCn1c([N+](=O)[O-])nc2c1c(=O)[nH]c(=O)n2C | 0.823 | 1.64 | 11.6 |
| CCOc1ccc(NC(=O)CCN2CCN(c3ccccc3F)CC2)cc1 | 36.3 | > 100 |  |

| Compound | IC50 [µM] | IC90 [µM] | CC50 [µM] |
| --- | --- | --- | --- |
| Cc1nn(-c2ccccc2)nc1C(=O)c1c(C)[nH]n(-c2ccccc2)c1=O | 8.35 | 13.6 | 37 |
| CCCCOc1ccc(NC(=O)CSc2nnnn2C)cc1 | 34 | > 100 |  |
| CC(C)c1ccc(C2C3=C(CC(C)(C)CC3=O)NC3=C2C(=O)c2ccccc23)cc1 (stereo unspecified) | 50.6 | > 100 | > 40 |
| CCOC(=O)c1ccc(NC(=O)CN2C(=O)C(=O)N(CC(C)C)C2=O)cc1 | < 0.195 | > 100 |  |
| Cc1cccc(N=C2NN=C(c3c(C)[nH]c4ccccc34)CS2)c1 | 10.4 | 16.3 | 38.6 |
| O=C(Nc1cc(Oc2ccccc2)cc([N+](=O)[O-])c1)C12CC3CC(C1)CC(n1cnc(Cl)n1)(C3)C2 | 4.19 | > 100 | > 40 |
| CCOC(=O)COc1ccc(/C=C2/SC(=Nc3ccccc3)N(Cc3cccnc3)C2=O)cc1OC | 10.4 | > 100 | > 40 |
| CC(C)(C)C1CCc2c(sc(NC(=O)CSc3nnc(-c4ccccc4)o3)c2C#N)C1 (stereo unspecified) |  | > 100 |  |
| COc1ccc(N2CCN(CC(=O)Nc3nc4c(s3)CC(C)CC4)CC2)cc1 (stereo unspecified) | 4.42 | 49.1 |  |
| CCOC(=O)c1cc(-c2csc(COc3ccccc3)n2)on1 | 1.84 | 35.2 |  |
| CCOC(=O)c1cnc(-n2nc(C)cc2C)nc1NCCc1ccccc1 | 0.688 | 1.06 | > 40 |
| COc1ccccc1N1CCN(Cc2nc(N)nc(Nc3ccc(C)c(Cl)c3)n2)CC1 | 8.35 | 18.7 | > 40 |
| O=C1C(=O)c2ccc(-c3ccccc3)cc2-c2ccccc21 | 1.47 | 1.66 | 3.09 |
| CCCCCn1c(N2CCC(Cc3ccccc3)CC2)nc2c1c(=O)[nH]c(=O)n2C | 11.8 | 13.4 | 24.1 |
| CC1CCN(c2nc(-c3ccncc3)nc3ccccc23)CC1 | 4.62 | 6.52 | > 40 |
| Cc1ccc(-c2nc(C(Cl)Cl)c3ccccc3n2)cc1 | 4.4 | 12.1 | 0.923 |
| O=[N+]([O-])c1ccc(Sc2cccc3cccnc23)c([N+](=O)[O-])c1 | 32.9 | > 100 | 4.55 |
| O=c1c2cc(Cl)ccc2oc2nc3n(c(=O)c12)CCCS3 | 0.803 | 8.71 |  |
| Cc1cc(NC(=O)CCN2C(=O)C3C4C=CC(C4)C3C2=O)ccc1Br (stereo unspecified) | 35.3 | > 100 |  |
| COC(=O)C1C2c3ccccc3OC1(C)N=c1s/c(=C/c3cnn(C)c3C)c(=O)n12 (stereo unspecified) | 2.43 | 17.7 |  |
| CCOc1ccc(NC(=O)c2ccccc2CO)cc1 | 9.45 | > 100 |  |
| O=C(CC(=O)c1ccccc1O)c1cccc(F)c1 | 18.4 | 29.2 | > 40 |
| CN=C(Nc1cc(Cl)ccc1Cl)SC1CC(=O)N(c2ccc(C(=O)OC)cc2)C1=O (stereo unspecified) | 24.9 | > 100 | > 40 |
| O=C(Nc1nnc(SCc2ccc(F)cc2)s1)c1cnccn1 | 15.6 | > 100 | > 40 |
| CCOC(=O)COc1ccc2c(C#N)c3ccccn3c2c1 | 1.67 | 8.66 |  |
| Cc1ccc2nc(Cl)c3nnnn3c2c1 | 11.9 | 17 | > 40 |
